From ChEMBL document CHEMBL1140936, “Topological polar surface area defines substrate transport by multidrug resistance associated protein 1 (MRP1/ABCC1)” (J Med Chem, 2009)

Columns and labels:
[1] = target: T1, Multidrug resistance-associated protein 1 (Homo sapiens, UniProt P33527); assay: Activity of MRP1
[2] = target: T1, Multidrug resistance-associated protein 1; assay: Activity at MRP1 in human HeLa T5 cells assessed as ATP-dependent drug transport at 50 nM measured per mg of protein; format: cell-based; conditions: 0.05 µM

T1 sequence (P33527 whole entry): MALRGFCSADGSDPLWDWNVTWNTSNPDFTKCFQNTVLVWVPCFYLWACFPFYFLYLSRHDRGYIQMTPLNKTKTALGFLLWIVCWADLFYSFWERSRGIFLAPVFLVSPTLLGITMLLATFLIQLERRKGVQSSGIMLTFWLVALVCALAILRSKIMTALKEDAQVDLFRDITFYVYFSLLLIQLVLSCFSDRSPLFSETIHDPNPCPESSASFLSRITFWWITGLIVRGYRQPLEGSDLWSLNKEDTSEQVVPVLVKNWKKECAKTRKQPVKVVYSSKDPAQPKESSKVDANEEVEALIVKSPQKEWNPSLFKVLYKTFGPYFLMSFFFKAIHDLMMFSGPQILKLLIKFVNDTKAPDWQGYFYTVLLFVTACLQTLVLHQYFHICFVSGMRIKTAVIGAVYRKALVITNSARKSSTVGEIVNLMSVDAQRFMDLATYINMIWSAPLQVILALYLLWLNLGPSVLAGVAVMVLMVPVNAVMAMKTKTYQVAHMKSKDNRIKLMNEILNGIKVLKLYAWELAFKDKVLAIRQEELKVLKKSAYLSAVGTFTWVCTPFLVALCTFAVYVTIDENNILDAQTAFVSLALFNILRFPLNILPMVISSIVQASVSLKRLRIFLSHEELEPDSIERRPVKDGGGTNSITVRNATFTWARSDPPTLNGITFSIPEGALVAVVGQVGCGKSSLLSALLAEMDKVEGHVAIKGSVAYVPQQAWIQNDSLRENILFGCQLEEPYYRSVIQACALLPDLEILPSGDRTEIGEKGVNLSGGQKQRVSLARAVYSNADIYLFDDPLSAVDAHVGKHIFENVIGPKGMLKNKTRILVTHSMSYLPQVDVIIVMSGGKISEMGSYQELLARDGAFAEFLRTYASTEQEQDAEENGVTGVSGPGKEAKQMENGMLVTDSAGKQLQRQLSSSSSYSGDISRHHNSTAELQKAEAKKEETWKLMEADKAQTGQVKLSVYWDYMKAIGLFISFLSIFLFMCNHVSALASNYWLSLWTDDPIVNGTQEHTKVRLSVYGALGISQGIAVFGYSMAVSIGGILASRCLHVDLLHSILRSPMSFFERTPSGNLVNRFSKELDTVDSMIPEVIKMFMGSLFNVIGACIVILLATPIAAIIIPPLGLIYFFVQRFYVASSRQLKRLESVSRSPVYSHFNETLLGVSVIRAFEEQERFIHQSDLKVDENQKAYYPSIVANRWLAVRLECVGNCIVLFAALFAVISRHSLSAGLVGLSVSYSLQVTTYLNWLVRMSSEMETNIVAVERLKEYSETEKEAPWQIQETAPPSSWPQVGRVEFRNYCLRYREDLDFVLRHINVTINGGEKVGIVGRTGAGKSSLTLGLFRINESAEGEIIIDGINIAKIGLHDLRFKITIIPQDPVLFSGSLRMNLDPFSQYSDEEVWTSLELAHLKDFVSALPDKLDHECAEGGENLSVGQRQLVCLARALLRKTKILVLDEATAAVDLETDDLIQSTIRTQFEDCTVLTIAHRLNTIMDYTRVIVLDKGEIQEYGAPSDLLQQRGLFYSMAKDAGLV

| Km [1] | Activity [2] | Compound |
| --- | --- | --- |
| 12 µM |  | Cc1ccc(N(CC(=O)O)CC(=O)O)c(OCCOc2cc(-c3c4cc(Cl)c(=O)cc-4oc4cc(O)c(Cl)cc34)ccc2N(CC(=O)O)CC(=O)O)c1 |
|  | 15 pmol/min | CCCCC/C=C\C\C=C/C=C/C=C/[C@@H](SC[C@H](N)C(=O)NCC(=O)O)[C@@H](O)CCCC(=O)O [LEUKOTRIENE D4] |
|  | 8 pmol/min | CCCCC/C=C\C\C=C/C=C/C=C/[C@@H](SC[C@H](N)C(=O)O)[C@@H](O)CCCC(=O)O [LEUKOTRIEN E4] |
